Experimental data as given in patent US9695155B2, “Herbicidal substituted pyrimidinyloxy benzene compounds” (E. I. DU PONT DE NEMOURS AND COMPANY, priority 2013, dated 2017).

Tests used:
barnyardgrass [1] = test: Test A preemergence; type: in vivo, Echinochloa crus-galli; conditions: for Barnyardgrass plant response rating (0 to 100 scale, 0 is no effect, 100 is complete control): 125 g ai/ha; for Barnyardgrass plant response rating: 500 g ai/ha, 0 to 100 scale where 0 is no effect and 100 is complete control
Outline: (§1)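 Greenhouse pot test, loam/sand soil. Formulation: non-phytotoxic solvent mix plus surfactant. Pre: directed spray onto soil after sowing. Post: plants at 1–2 leaf, 2–10 cm. Rated visually vs untreated controls at ~10 d, 0 (no effect) to 100 (complete control).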

large (Lg) crabgrass [2] = test: Test A preemergence; type: in vivo, Digitaria sanguinalis; conditions: for Crabgrass, Large plant response rating (0 to 100 scale): 125 g ai/ha; for Crabgrass, Large plant response rating: 500 g ai/ha, 0 to 100 scale where 0 is no effect and 100 is complete control
Outline: as §1

giant foxtail [3] = test: Test A preemergence; type: in vivo, Setaria faberii; conditions: for Foxtail, Giant plant response rating (0 to 100 scale): 125 g ai/ha; for Foxtail, Giant plant response rating: 500 g ai/ha, 0 to 100 scale where 0 is no effect and 100 is complete control
Outline: as §1

morningglory [4] = test: Test A preemergence; type: in vivo, Ipomoea spp.; conditions: for Morningglory plant response rating (0 to 100 scale): 125 g ai/ha; for Morningglory plant response rating: 500 g ai/ha, 0 to 100 scale where 0 is no effect and 100 is complete control
Outline: as §1

pigweed [5] = test: Test A preemergence; type: in vivo, Amaranthus retroflexus; conditions: for Pigweed plant response rating (0 to 100 scale): 125 g ai/ha; for Pigweed plant response rating: 500 g ai/ha, 0 to 100 scale where 0 is no effect and 100 is complete control
Outline: as §1

velvetleaf [6] = test: Test A preemergence; type: in vivo, Abutilon theophrasti; conditions: for Velvetleaf plant response rating (0 to 100 scale): 125 g ai/ha; for Velvetleaf plant response rating: 500 g ai/ha, 0 to 100 scale where 0 is no effect and 100 is complete control
Outline: as §1

wheat [7] = test: Test A preemergence; type: in vivo, Triticum aestivum; conditions: for Wheat plant response rating (0 to 100 scale): 125 g ai/ha; for Wheat plant response rating: 500 g ai/ha, 0 to 100 scale where 0 is no effect and 100 is complete control
Outline: as §1

corn [8] = test: Test A preemergence; type: in vivo, Zea mays; conditions: for Corn plant response rating (0 to 100 scale): 125 g ai/ha; for Corn plant response rating: 500 g ai/ha, 0 to 100 scale where 0 is no effect and 100 is complete control
Outline: as §1

barnyardgrass [9] = test: Test A postemergence; type: in vivo, Echinochloa crus-galli; conditions: 0 to 100 scale where 0 is no effect and 100 is complete control; for Barnyardgrass plant response rating: 125 g ai/ha; for Plant response rating, Barnyardgrass: 500 g ai/ha
Outline: as §1

large (Lg) crabgrass [10] = test: Test A postemergence; type: in vivo, Digitaria sanguinalis; conditions: 0 to 100 scale where 0 is no effect and 100 is complete control; for Crabgrass, Large plant response rating: 125 g ai/ha; for Plant response rating, Crabgrass, Large: 500 g ai/ha
Outline: as §1

giant foxtail [11] = test: Test A postemergence; type: in vivo, Setaria faberii; conditions: 0 to 100 scale where 0 is no effect and 100 is complete control; for Foxtail, Giant plant response rating: 125 g ai/ha; for Plant response rating, Foxtail, Giant: 500 g ai/ha
Outline: as §1

morningglory [12] = test: Test A postemergence; type: in vivo, Ipomoea spp.; conditions: 0 to 100 scale where 0 is no effect and 100 is complete control; for Morningglory plant response rating: 125 g ai/ha; for Plant response rating, Morningglory: 500 g ai/ha
Outline: as §1

pigweed [13] = test: Test A postemergence; type: in vivo, Amaranthus retroflexus; conditions: 0 to 100 scale where 0 is no effect and 100 is complete control; for Pigweed plant response rating: 125 g ai/ha; for Plant response rating, Pigweed: 500 g ai/ha
Outline: as §1

velvetleaf [14] = test: Test A postemergence; type: in vivo, Abutilon theophrasti; conditions: 0 to 100 scale where 0 is no effect and 100 is complete control; for Velvetleaf plant response rating: 125 g ai/ha; for Plant response rating, Velvetleaf: 500 g ai/ha
Outline: as §1

wheat [15] = test: Test A postemergence; type: in vivo, Triticum aestivum; conditions: 0 to 100 scale where 0 is no effect and 100 is complete control; for Wheat plant response rating: 125 g ai/ha; for Plant response rating, Wheat: 500 g ai/ha
Outline: as §1

corn [16] = test: Test A postemergence; type: in vivo, Zea mays; conditions: 0 to 100 scale where 0 is no effect and 100 is complete control; for Corn plant response rating: 125 g ai/ha; for Plant response rating, Corn: 500 g ai/ha
Outline: as §1

rice = test: Test B flooded paddy test; type: in vivo, Oryza sativa; conditions: Flood, 250 g ai/ha; 0 to 100 scale where 0 is no effect and 100 is complete control
Outline: (§2)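 Plants were grown to the 2-leaf stage, then pots were flooded to 3 cm above the soil and compounds were applied directly into the paddy water. That depth was held throughout, and after 13 to 15 days in the greenhouse injury was rated visually against controls on a 0–100 scale (0 no effect, 100 complete control).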

sedge, umbrella = test: Test B flooded paddy test; type: in vivo, Cyperus difformis; conditions: Flood, 250 g ai/ha; 0 to 100 scale where 0 is no effect and 100 is complete control
Outline: as §2

Heteranthera limosa = test: Test B flooded paddy test; type: in vivo; conditions: Flood, 250 g ai/ha; 0 to 100 scale where 0 is no effect and 100 is complete control
Outline: as §2

barnyardgrass [17] = test: Test B flooded paddy test; type: in vivo, Echinochloa crus-galli; conditions: Flood, 250 g ai/ha; 0 to 100 scale where 0 is no effect and 100 is complete control
Outline: as §2

| SMILES | Barnyardgrass plant response rating (0 to 100 scale, 0 is no effect, 100 is complete control) (barnyardgrass [1]) | Barnyardgrass plant response rating (barnyardgrass [1]) | Crabgrass, Large plant response rating (0 to 100 scale) (large (Lg) crabgrass [2]) | Crabgrass, Large plant response rating (large (Lg) crabgrass [2]) | Foxtail, Giant plant response rating (0 to 100 scale) (giant foxtail [3]) | Foxtail, Giant plant response rating (giant foxtail [3]) | Morningglory plant response rating (0 to 100 scale) (morningglory [4]) | Morningglory plant response rating (morningglory [4]) | Pigweed plant response rating (0 to 100 scale) (pigweed [5]) | Pigweed plant response rating (pigweed [5]) | Velvetleaf plant response rating (0 to 100 scale) (velvetleaf [6]) | Velvetleaf plant response rating (velvetleaf [6]) | Wheat plant response rating (0 to 100 scale) (wheat [7]) | Wheat plant response rating (wheat [7]) | Corn plant response rating (0 to 100 scale) (corn [8]) | Corn plant response rating (corn [8]) | Barnyardgrass plant response rating (barnyardgrass [9]) | Plant response rating, Barnyardgrass (barnyardgrass [9]) | Crabgrass, Large plant response rating (large (Lg) crabgrass [10]) | Plant response rating, Crabgrass, Large (large (Lg) crabgrass [10]) | other results |
| --- | --- | --- | --- | --- | --- | --- | --- | --- | --- | --- | --- | --- | --- | --- | --- | --- | --- | --- | --- | --- | --- |
| C=C(C)c1cccc(Oc2ncc(Cl)cn2)c1-n1cc(Br)cn1 [Compound 198] | 50 | 80 | 80 | 100 | 70 | 100 | 0 | 10 | 100 | 100 | 40 | 80 | 0 | 0 | 0 | 0 | 30 | 50 | 60 | 90 | Foxtail, Giant plant response rating (giant foxtail [11]): 30; Plant response rating, Foxtail, Giant (giant foxtail [11]): 80; Morningglory plant response rating (morningglory [12]): 60; Plant response rating, Morningglory (morningglory [12]): 70; Pigweed plant response rating (pigweed [13]): 90; Plant response rating, Pigweed (pigweed [13]): 100; Velvetleaf plant response rating (velvetleaf [14]): 90; Plant response rating, Velvetleaf (velvetleaf [14]): 100; Wheat plant response rating (wheat [15]): 0; Plant response rating, Wheat (wheat [15]): 10; Corn plant response rating (corn [16]): 20; Plant response rating, Corn (corn [16]): 20; Plant response rating, Rice (rice): 0; Plant response rating, Sedge, Umbrella (sedge, umbrella): 20; Plant response rating, Ducksalad (Heteranthera limosa): 25; Plant response rating, Barnyardgrass (barnyardgrass [17]): 0 |
| COc1ccc(Br)c(-n2cc(Br)cn2)c1Oc1ncc(Cl)cn1 [Compound 201] | 0 | 0 | 20 | 40 | 20 | 50 | 0 | 0 | 0 | 0 | 0 | 0 | 0 | 0 | 0 | 0 | 0 | 10 | 0 | 30 | Foxtail, Giant plant response rating (giant foxtail [11]): 0; Plant response rating, Foxtail, Giant (giant foxtail [11]): 40; Morningglory plant response rating (morningglory [12]): 20; Plant response rating, Morningglory (morningglory [12]): 20; Pigweed plant response rating (pigweed [13]): 20; Plant response rating, Pigweed (pigweed [13]): 40; Velvetleaf plant response rating (velvetleaf [14]): 30; Plant response rating, Velvetleaf (velvetleaf [14]): 70; Wheat plant response rating (wheat [15]): 0; Plant response rating, Wheat (wheat [15]): 0; Corn plant response rating (corn [16]): 0; Plant response rating, Corn (corn [16]): 0; Plant response rating, Rice (rice): 0; Plant response rating, Sedge, Umbrella (sedge, umbrella): 20; Plant response rating, Ducksalad (Heteranthera limosa): 40; Plant response rating, Barnyardgrass (barnyardgrass [17]): 0 |
| Cc1ccc(Oc2ncc(Cl)cn2)c(-n2cc(Br)cn2)c1Br [Compound 202] | 0 | 10 | 40 | 70 | 10 | 70 | 0 | 0 | 0 | 0 | 0 | 0 | 0 | 0 | 0 | 0 | 0 | 0 | 10 | 50 | Foxtail, Giant plant response rating (giant foxtail [11]): 10; Plant response rating, Foxtail, Giant (giant foxtail [11]): 30; Morningglory plant response rating (morningglory [12]): 0; Plant response rating, Morningglory (morningglory [12]): 20; Pigweed plant response rating (pigweed [13]): 30; Plant response rating, Pigweed (pigweed [13]): 50; Velvetleaf plant response rating (velvetleaf [14]): 50; Plant response rating, Velvetleaf (velvetleaf [14]): 70; Wheat plant response rating (wheat [15]): 0; Plant response rating, Wheat (wheat [15]): 0; Corn plant response rating (corn [16]): 0; Plant response rating, Corn (corn [16]): 0; Plant response rating, Rice (rice): 0; Plant response rating, Sedge, Umbrella (sedge, umbrella): 10; Plant response rating, Ducksalad (Heteranthera limosa): 30; Plant response rating, Barnyardgrass (barnyardgrass [17]): 0 |
| O=Cc1cccc(Oc2ncc(Cl)cn2)c1-n1cc(Cl)cn1 [Compound 205] | 0 | 0 | 0 | 0 | 0 | 0 | 0 | 0 | 0 | 10 | 0 | 10 | 0 | 0 | 0 | 0 | 0 | 0 | 0 | 0 | Foxtail, Giant plant response rating (giant foxtail [11]): 0; Plant response rating, Foxtail, Giant (giant foxtail [11]): 0; Morningglory plant response rating (morningglory [12]): 0; Plant response rating, Morningglory (morningglory [12]): 0; Pigweed plant response rating (pigweed [13]): 0; Plant response rating, Pigweed (pigweed [13]): 0; Velvetleaf plant response rating (velvetleaf [14]): 10; Plant response rating, Velvetleaf (velvetleaf [14]): 20; Wheat plant response rating (wheat [15]): 0; Plant response rating, Wheat (wheat [15]): 0; Corn plant response rating (corn [16]): 0; Plant response rating, Corn (corn [16]): 0; Plant response rating, Rice (rice): 0; Plant response rating, Sedge, Umbrella (sedge, umbrella): 0; Plant response rating, Ducksalad (Heteranthera limosa): 0; Plant response rating, Barnyardgrass (barnyardgrass [17]): 0 |
| N#Cc1ccc(Oc2ncc(Cl)cn2)c(-n2cc(Br)cn2)c1 [Compound 213] | 0 | 10 | 10 | 100 | 20 | 100 | 0 | 10 | 50 | 100 | 0 | 0 | 0 | 0 | 0 | 0 | 0 | 10 | 20 | 70 | Foxtail, Giant plant response rating (giant foxtail [11]): 10; Plant response rating, Foxtail, Giant (giant foxtail [11]): 30; Morningglory plant response rating (morningglory [12]): 20; Plant response rating, Morningglory (morningglory [12]): 30; Pigweed plant response rating (pigweed [13]): 100; Plant response rating, Pigweed (pigweed [13]): 100; Velvetleaf plant response rating (velvetleaf [14]): 10; Plant response rating, Velvetleaf (velvetleaf [14]): 20; Wheat plant response rating (wheat [15]): 0; Plant response rating, Wheat (wheat [15]): 0; Corn plant response rating (corn [16]): 0; Plant response rating, Corn (corn [16]): 30; Plant response rating, Rice (rice): 0; Plant response rating, Sedge, Umbrella (sedge, umbrella): 70; Plant response rating, Ducksalad (Heteranthera limosa): 0; Plant response rating, Barnyardgrass (barnyardgrass [17]): 0 |
